Data on one compound can be found in US20210236442A1, “METHODS FOR DELAYING OCCURRENCE OF NEW-ONSET TYPE 2 DIABETES AND FOR SLOWING PROGRESSION OF AND TREATING TYPE 2 DIABETES” (Dalcor Pharma UK Ltd., Leatherhead, Zug Branch, priority 2018, published 2021).

What all share (format): in vivo, human
In assay [1] the test system is patients enrolled in the dal-OUTCOMES trial. Kind of assay: Cox proportional hazards regression of diabetes for association with cardiovascular events per rs1967309 genotype and treatment arm (dal-OUTCOMES). The conditions noted are these: for Event (cardiovascular events) / HR (diabetes, cardiovascular events) / β diabetes (cardiovascular events): dalcetrapib arm. From the text: Inclusion Criteria: Patients 45 years of age or older who provided written informed consent were eligible to participate if they had been hospitalized for an acute coronary syndrome characterized by elevated cardiac biomarkers, with symptoms of acute myocardial ischemia, ischemic electrocardiographic abnormalities that were new or presumed to be new, or loss of viable myocardium on imaging. Patients without elevated cardiac biomarkers were eligible to participate if symptoms of acute myocardial ischemia were accompanied by electrocardiographic changes that were new or presumed to be new and by additional evidence of obstructive coronary disease. […] However, no specific statin agent or dose was specified, and patients were not excluded if their LDL cholesterol level remained above 100 mg per deciliter. There were no exclusions on the basis of patients' HDL cholesterol level. […] The patients began a single-blind placebo-based run-in period of approximately 4 to 6 weeks to allow for patients to stabilize and for completion of any planned revascularization procedures. At the end of the run-in period, patients in stable condition were randomized in a 1:1 ratio to 600 mg of dalcetrapib or placebo on top of evidence-based medical care for acute cardiovascular syndrome (“ACS”). The descriptive statistics and analyses were performed using SAS 9.4 software. […]

For assay [2] the test system is unchanged. Put plainly: Repeated measures mixed model regression of treatment arm for fasting plasma glucose and whole-blood HbA1c per genotype and diabetes status. The conditions noted are these: all rs1967309 genotypes, diabetic and non-diabetic, with and without age and sex; except AG diabetic patients. The text has this: (§1) The effect of ADCY9 rs1967309 genotypes on patient HbA1C and glucose levels was retrospectively assessed in patients enrolled in the dal-OUTCOMES trial.
Inclusion Criteria: Patients 45 years of age or older who provided written informed consent were eligible to participate if they had been hospitalized for an acute coronary syndrome characterized by elevated cardiac biomarkers, with symptoms of acute myocardial ischemia, ischemic electrocardiographic abnormalities that were new or presumed to be new, or loss of viable myocardium on imaging. Patients without elevated cardiac biomarkers were eligible to participate if symptoms of acute myocardial ischemia were accompanied by electrocardiographic changes that were new or presumed to be new and by additional evidence of obstructive coronary disease. […] However, no specific statin agent or dose was specified, and patients were not excluded if their LDL cholesterol level remained above 100 mg per deciliter. There were no exclusions on the basis of patients' HDL cholesterol level. […] The patients began a single-blind placebo-based run-in period of approximately 4 to 6 weeks to allow for patients to stabilize and for completion of any planned revascularization procedures. […]

Assay [3] shares this test system. Put plainly: Descriptive statistics of glucose and HbA1c, reported and change from baseline, by genotype and treatment arm. Particulars: non-diabetic patients irrespective of rs1967309 genotype.
Text: as §1
Inclusion Criteria: Patients 45 years of age or older who provided written informed consent were eligible to participate if they had been hospitalized for an acute coronary syndrome characterized by elevated cardiac biomarkers, with symptoms of acute myocardial ischemia, ischemic electrocardiographic abnormalities that were new or presumed to be new, or loss of viable myocardium on imaging. Patients without elevated cardiac biomarkers were eligible to participate if symptoms of acute myocardial ischemia were accompanied by electrocardiographic changes that were new or presumed to be new and by additional evidence of obstructive coronary disease. […] However, no specific statin agent or dose was specified, and patients were not excluded if their LDL cholesterol level remained above 100 mg per deciliter. There were no exclusions on the basis of patients' HDL cholesterol level. […]
Descriptive statistics of reported and change from baseline of glucose and HbA1C according to the genotype of the SNP rs1967309 were analyzed for each treatment arm and for diabetic and non-diabetic patients separately with non-parametric statistics.

Assay [4] deals with patients of the dal-OUTCOMES trial. Put plainly: Repeated measures mixed regression of treatment arm for HbA1c, all patients and per genotype (Example 2). Particulars: all patients combined and each rs1967309 genotype; with and without covariates. The method, then: The effect of dalcetrapib on whole-blood HbA1c levels irrespective of genotype and the impact of dalcetrapib on risk of new onset diabetes were retrospectively assessed in patients of the dal-OUTCOMES trial. The descriptive statistics and analyses were performed using SAS 9.4 software.

[5] abbreviates: rs1967309 AA, controlling for age and sex.
Setting [6] is: rs1967309 AG, controlling for age and sex.
[7] abbreviates: rs1967309 GG, controlling for age and sex.

Consider `CCC(CC)CC1(C(=O)Nc2ccccc2SC(=O)C(C)C)CCCCC1` [dalcetrapib], for which the “effect of dalcetrapib on cardiovascular events” value in assay [1] (AA patients with diabetes) is “cardiovascular protective effect”. In addition, the “Event (cardiovascular events)” value in assay [1] (rs1967309 AA, Table 6) was determined as 37; in assay [1] (rs1967309 AA, Table 7), 37; in assay [1] (rs1967309 AG, Table 6), 176; in assay [1] (rs1967309 AG, Table 7) it was 176; in assay [1] (rs1967309 GG, Table 6) it was 176; in assay [1] (rs1967309 GG, Table 7), 176. Moreover, the “HR (diabetes, cardiovascular events)” value in assay [1] (setting [5]) is on record as 1.6850; in assay [1] (rs1967309 AA, no covariate) it was 1.4330; in assay [1] (setting [6]), 2.2217; in assay [1] (rs1967309 AG, no covariate), 2.3398; in assay [1] (setting [7]), 1.6913; in assay [1] (rs1967309 GG, no covariate), 1.7772. Further, the “β diabetes (cardiovascular events)” value in assay [1] (setting [5]) is reported as 0.5218; in assay [1] (rs1967309 AA, no covariate), 0.3597; in assay [1] (setting [6]) it was 0.7983; in assay [1] (rs1967309 AG, no covariate), 0.8501; in assay [1] (setting [7]) it was 0.5255; in assay [1] (rs1967309 GG, no covariate) it was 0.5750. For the same compound, in assay [2], the “significance of dalcetrapib treatment arm for outcome HbA1c” value is given as “significant”. The “HbA1c change from baseline compared to placebo” value in assay [3] is “greater reductions in HbA1c”. Besides, in assay [3], the “whole-blood level of HbA1c with dalcetrapib treatment compared to placebo” value is reported as “systematically lower”. For the same compound, in assay [4], the “dalcetrapib treatment arm as predictor of HbA1c” value is recorded as “significant predictor of reduced HbA1c”.
